# Results: US9522888B2, “Substituted bicyclic compounds” (BRISTOL-MYERS SQUIBB COMPANY, priority 2014, dated 2016)
# Molecular target: human S1P1 (Homo sapiens (Human), UniProt P21453)
# Assay: S1P1 binding assay (33P-S1P radioligand competition, CHO cell membranes)
# Details: phosphate examples; read-out: S1P1 Binding
# Outline: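 Radioligand is 33P-S1P, competing for membranes from human S1P1-expressing CHO cells. Membranes resuspended in 50 mM HEPES pH 7.5, 100 mM NaCl, 1 mM MgCl2, 2 mM EDTA.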
# Sequence of human S1P1 (P21453 whole entry): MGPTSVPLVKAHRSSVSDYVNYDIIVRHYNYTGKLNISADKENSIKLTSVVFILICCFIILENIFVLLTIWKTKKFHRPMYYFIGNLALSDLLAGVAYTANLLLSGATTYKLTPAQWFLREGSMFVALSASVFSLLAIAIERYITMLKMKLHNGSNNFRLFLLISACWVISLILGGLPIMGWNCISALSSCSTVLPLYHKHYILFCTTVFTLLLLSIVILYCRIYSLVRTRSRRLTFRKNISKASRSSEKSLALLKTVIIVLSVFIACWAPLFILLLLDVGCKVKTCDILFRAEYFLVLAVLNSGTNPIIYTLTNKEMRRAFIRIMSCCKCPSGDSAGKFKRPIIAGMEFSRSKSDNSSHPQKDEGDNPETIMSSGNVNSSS
row,SMILES,IC50
1,"COc1ccc(CC[C@@H]2CCc3cc(C4CCC(N)(COP(=O)(O)O)C4)ccc3C2)cc1 (single isomer, unassigned) [compound 593]",< 10 nM
2,"C=CCOCCO[C@@H]1CCc2cc(C3CCC(N)(COP(=O)(O)O)C3)ccc2C1 (single isomer, unassigned) [compound 579]",100 to 1000 nM
3,CCCCOCCO[C@@H]1CCc2cc([C@@H]3CC[C@@](N)(COP(=O)(O)O)C3)ccc2C1 [compound 592],< 10 nM
4,CCCC[S+]([O-])C[C@@H]1CCc2cc([C@H]3CC[C@](N)(COP(=O)(O)O)C3)ccc2C1 (stereo partly shown) [compound 668],< 10 nM
5,COc1ccccc1/C=C/[C@@H]1CCc2cc([C@H]3CC[C@](N)(COP(=O)(O)O)C3)ccc2C1 [compound 641],100 to 1000 nM
6,COc1ccc(COC[C@@H]2CCc3cc([C@H]4CC[C@](N)(COP(=O)(O)O)C4)ccc3C2)cc1 [compound 482],100 to 1000 nM

# More lines, now with the values ahead:
row,IC50,SMILES
1,< 10 nM,CC(C)OCCC[C@@H]1CCc2cc([C@@H]3CC[C@@](N)(COP(=O)(O)O)C3)ccc2C1 [compound 602]
2,< 10 nM,CCCC/C=C\CO[C@H]1CCc2cc([C@H]3CC[C@](N)(COP(=O)(O)O)C3)ccc2C1 [compound 440]
3,< 10 nM,CC(C)SCC[C@H]1CCc2cc([C@H]3CC[C@](N)(COP(=O)(O)O)C3)ccc2C1 [compound 536]
4,< 10 nM,N[C@]1(COP(=O)(O)O)CC[C@H](c2ccc3c(c2)CC[C@H](c2ccccc2)C3)C1 [compound 569]

# Molecular target: S1P1 (membranes prepared from S1P1/CHO cells) (Homo sapiens (Human), UniProt P21453)
# Assay: Receptor [35S] GTPγS binding assay (S1P1 GTPγS)
# Type: biochemical
# Details: phosphate examples; read-out: S1P1 GTPγS
# Outline: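 Agonist-stimulated [35S]GTPγS binding (0.2 nM final) to S1P1/CHO membranes, 3 μg protein/well, measured after 45 min at room temperature. Buffer contained 10 μM GDP, saponin and fatty-acid-free BSA at pH 7.5. Compounds tested as 11-point 3-fold series; bound label captured on filters, scintillation-counted, EC50 reported.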
# Sequence of S1P1 (membranes prepared from S1P1/CHO cells) (P21453 whole entry): as above
row,SMILES,EC50
1,"COc1ccc(CC[C@@H]2CCc3cc(C4CCC(N)(COP(=O)(O)O)C4)ccc3C2)cc1 (single isomer, unassigned) [compound 593]",10 to 100 nM
2,"C=CCOCCO[C@@H]1CCc2cc(C3CCC(N)(COP(=O)(O)O)C3)ccc2C1 (single isomer, unassigned) [compound 579]",100 to 1000 nM
3,CCCCOCCO[C@@H]1CCc2cc([C@@H]3CC[C@@](N)(COP(=O)(O)O)C3)ccc2C1 [compound 592],10 to 100 nM
4,CCCC[S+]([O-])C[C@@H]1CCc2cc([C@H]3CC[C@](N)(COP(=O)(O)O)C3)ccc2C1 (stereo partly shown) [compound 668],< 10 nM
5,COc1ccccc1/C=C/[C@@H]1CCc2cc([C@H]3CC[C@](N)(COP(=O)(O)O)C3)ccc2C1 [compound 641],10 to 100 nM
6,COc1ccc(COC[C@@H]2CCc3cc([C@H]4CC[C@](N)(COP(=O)(O)O)C4)ccc3C2)cc1 [compound 482],10 to 100 nM

# Results, then the compound that gave them:
row,EC50,SMILES
1,< 10 nM,CC(C)OCCC[C@@H]1CCc2cc([C@@H]3CC[C@@](N)(COP(=O)(O)O)C3)ccc2C1 [compound 602]
2,< 10 nM,CCCC/C=C\CO[C@H]1CCc2cc([C@H]3CC[C@](N)(COP(=O)(O)O)C3)ccc2C1 [compound 440]
3,10 to 100 nM,CC(C)SCC[C@H]1CCc2cc([C@H]3CC[C@](N)(COP(=O)(O)O)C3)ccc2C1 [compound 536]
4,10 to 100 nM,N[C@]1(COP(=O)(O)O)CC[C@H](c2ccc3c(c2)CC[C@H](c2ccccc2)C3)C1 [compound 569]

# Molecular target: S1P3 (membranes prepared from EDG3-Gal5-bla HEK293T cells) (Homo sapiens (Human), UniProt Q99500)
# Assay: Receptor [35S] GTPγS binding assay (S1P3 GTPγS)
# Type: biochemical
# Details: phosphate examples; read-out: S1P3 GTPγS
# Outline: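 Membranes (3 μg protein/well) from S1P1/CHO cells or EDG3-Gal5-bla HEK293T cells (S1P3) were incubated 45 min at room temperature with 0.2 nM final [35S]GTPγS in HEPES pH 7.5 buffer with 10 μM GDP, MgCl2 and saponin. Bound label counted after filtration; EC50 from 11-point, 3-fold dilutions.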
# Sequence of S1P3 (membranes prepared from EDG3-Gal5-bla HEK293T cells) (Q99500 whole entry): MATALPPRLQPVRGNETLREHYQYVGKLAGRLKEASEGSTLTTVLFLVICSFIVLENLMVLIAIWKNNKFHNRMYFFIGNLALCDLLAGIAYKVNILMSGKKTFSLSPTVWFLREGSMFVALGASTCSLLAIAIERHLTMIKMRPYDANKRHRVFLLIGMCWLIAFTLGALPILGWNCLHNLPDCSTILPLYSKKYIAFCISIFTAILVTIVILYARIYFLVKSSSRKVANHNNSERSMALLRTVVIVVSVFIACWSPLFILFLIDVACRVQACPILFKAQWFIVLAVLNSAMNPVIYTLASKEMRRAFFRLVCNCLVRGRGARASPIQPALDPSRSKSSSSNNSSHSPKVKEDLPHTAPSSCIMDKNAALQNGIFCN
row,SMILES,EC50
1,"COc1ccc(CC[C@@H]2CCc3cc(C4CCC(N)(COP(=O)(O)O)C4)ccc3C2)cc1 (single isomer, unassigned) [compound 593]",> 625 nM
2,"C=CCOCCO[C@@H]1CCc2cc(C3CCC(N)(COP(=O)(O)O)C3)ccc2C1 (single isomer, unassigned) [compound 579]",> 625 nM
3,CCCCOCCO[C@@H]1CCc2cc([C@@H]3CC[C@@](N)(COP(=O)(O)O)C3)ccc2C1 [compound 592],> 625 nM
4,CCCC[S+]([O-])C[C@@H]1CCc2cc([C@H]3CC[C@](N)(COP(=O)(O)O)C3)ccc2C1 (stereo partly shown) [compound 668],> 625 nM
5,COc1ccccc1/C=C/[C@@H]1CCc2cc([C@H]3CC[C@](N)(COP(=O)(O)O)C3)ccc2C1 [compound 641],> 625 nM
6,COc1ccc(COC[C@@H]2CCc3cc([C@H]4CC[C@](N)(COP(=O)(O)O)C4)ccc3C2)cc1 [compound 482],> 625 nM

# Next, values leading:
row,EC50,SMILES
1,> 625 nM,CC(C)OCCC[C@@H]1CCc2cc([C@@H]3CC[C@@](N)(COP(=O)(O)O)C3)ccc2C1 [compound 602]
2,> 625 nM,CCCC/C=C\CO[C@H]1CCc2cc([C@H]3CC[C@](N)(COP(=O)(O)O)C3)ccc2C1 [compound 440]
3,> 625 nM,CC(C)SCC[C@H]1CCc2cc([C@H]3CC[C@](N)(COP(=O)(O)O)C3)ccc2C1 [compound 536]
4,> 625 nM,N[C@]1(COP(=O)(O)O)CC[C@H](c2ccc3c(c2)CC[C@H](c2ccccc2)C3)C1 [compound 569]

# Molecular target: hS1P1/CHO cells (Homo sapiens (Human), UniProt P21453)
# Assay: hS1P1 ERK phosphorylation (S1P1 pERK)
# Type: cell-based
# Details: phosphate examples
# Method: hS1P1 ERK Phosphorylation (S1P1 pERK)
# hS1P1/CHO cells were plated into BD Amine 384-well plates the day before the assay. On the day of the assay, growth medium was removed and replaced with serum-free medium (Ham's F-12 Invitrogen) and incubated for 2 hours. Test compounds pre-diluted in HBSS (Gibco)/20 mM HEPES (Gibco) were transferred to the cell plates and incubated for 7 minutes at 37° C. Cells were lysed in lysis buffer (Perkin Elmer) and phospho-ERK was measured using the SureFire pERK kit (Perkin Elmer) as described by the manufacturer. Data was plotted as percentage activation of the test compound relative to the efficacy of 10 μM S1P.
# Sequence of hS1P1/CHO cells (P21453 whole entry): as the sequence (P21453 whole entry) above
row,SMILES,EC50
1,"COc1ccc(CC[C@@H]2CCc3cc(C4CCC(N)(COP(=O)(O)O)C4)ccc3C2)cc1 (single isomer, unassigned) [compound 593]",10 to 100 nM
2,"C=CCOCCO[C@@H]1CCc2cc(C3CCC(N)(COP(=O)(O)O)C3)ccc2C1 (single isomer, unassigned) [compound 579]",10 to 100 nM
3,CCCCOCCO[C@@H]1CCc2cc([C@@H]3CC[C@@](N)(COP(=O)(O)O)C3)ccc2C1 [compound 592],< 10 nM
4,CCCC[S+]([O-])C[C@@H]1CCc2cc([C@H]3CC[C@](N)(COP(=O)(O)O)C3)ccc2C1 (stereo partly shown) [compound 668],10 to 100 nM
5,COc1ccccc1/C=C/[C@@H]1CCc2cc([C@H]3CC[C@](N)(COP(=O)(O)O)C3)ccc2C1 [compound 641],10 to 100 nM
6,COc1ccc(COC[C@@H]2CCc3cc([C@H]4CC[C@](N)(COP(=O)(O)O)C4)ccc3C2)cc1 [compound 482],10 to 100 nM

# Other lines, results leading:
row,EC50,SMILES
1,< 10 nM,CC(C)OCCC[C@@H]1CCc2cc([C@@H]3CC[C@@](N)(COP(=O)(O)O)C3)ccc2C1 [compound 602]
2,< 10 nM,CCCC/C=C\CO[C@H]1CCc2cc([C@H]3CC[C@](N)(COP(=O)(O)O)C3)ccc2C1 [compound 440]
3,< 10 nM,CC(C)SCC[C@H]1CCc2cc([C@H]3CC[C@](N)(COP(=O)(O)O)C3)ccc2C1 [compound 536]
4,< 10 nM,N[C@]1(COP(=O)(O)O)CC[C@H](c2ccc3c(c2)CC[C@H](c2ccccc2)C3)C1 [compound 569]
